Assay results: article PMC5437240, “Computational and structural evidence for neurotransmitter-mediated modulation of the oligomeric states of human insulin in storage granules” (The Journal of Biological Chemistry, 2017)

Biological target: T1, porcine hexameric Zn2+-insulin (Sus scrofa, UniProt P01315)
T1 construct: gene INS; mature two-chain disulfide-linked insulin, cut from (pre)proinsulin; Zn2+ hexamer (two Zn per hexamer), T6 start state
Assay: UV-visible 4H3N chromophore titration, Hill fit
Format: binding
Conditions: read-out: Kd ± S.D.
Excerpt: UV-visible 4H3N chromophore titration, Hill fit on porcine hexameric Zn2+-insulin

T1 sequence (P01315 25-54): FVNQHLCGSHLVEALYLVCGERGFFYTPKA
T1 sequence (P01315 88-108): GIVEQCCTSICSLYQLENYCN

Structure (SMILES) | Kd [mM]
NCCc1c[nH]c2ccc(O)cc12 [serotonin] | 3.34 ± 0.52
Oc1ccccc1 [phenol] | 0.86 ± 0.13
